Among the test systems are HCT-116 colon; LOX IMVI melanoma; CCRF-CEM leukemia; SK-MEL-28 melanoma; SF-539 CNS; NCI-H460 lung; NCI-H522 lung; OVCAR-8 ovarian; PC-3 prostate; SR leukemia.
What all share (assay): inhibition of tumour cell growth, NCI panel, 48 h

Structures are written as SMILES.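 Test compounds were applied to cells in 96-well plates for 48 hours at 5 doses. The concentration for 50% growth inhibition is given as GI50. Definition used: TGI = concentration required for complete inhibition of growth.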

Turning to `COc1ccc(/C=C/C(=O)c2sc(-n3nc(-c4ccccc4)cc3-c3ccccc3)nc2C)cc1`, the GI50 in the experiment on HCT-116 colon, in the experiment on LOX IMVI melanoma, in the experiment with CCRF-CEM leukemia, in the experiment with SK-MEL-28 melanoma, with SF-539 CNS and in the experiment on NCI-H460 lung was greater than 100 µM each time. Also, in the experiment with OVCAR-8 ovarian, the GI50 was greater than 100 µM. Also, the TGI in the experiment with HCT-116 colon, in the experiment with LOX IMVI melanoma, in the experiment with CCRF-CEM leukemia, in the experiment on SK-MEL-28 melanoma, with SF-539 CNS and in the experiment on NCI-H460 lung was greater than 100 µM in each case. For the same compound, the TGI in the experiment with NCI-H522 lung and with OVCAR-8 ovarian was greater than 100 µM throughout.

With `Cc1ccc(S(=O)(=O)NC(CN)C(=O)O)cc1` (stereo unspecified), the TGI in the experiment on PC-3 prostate, in the experiment on HCT-116 colon, in the experiment on LOX IMVI melanoma, with SK-MEL-28 melanoma, with SF-539 CNS and in the experiment with NCI-H460 lung was greater than 100 µM throughout. In addition, the TGI in the experiment with NCI-H522 lung and in the experiment on OVCAR-8 ovarian was greater than 100 µM throughout.

In the case of `CC(=O)C1=C(O)C2C3c4c[nH]c5cccc(c45)CC3C(C)(C)N2C1=O` (stereo unspecified), the TGI is 67.3 µM in the experiment with LOX IMVI melanoma; greater than 100 µM in the experiment with CCRF-CEM leukemia; greater than 100 µM with SK-MEL-28 melanoma; 44.4 µM in the experiment with SF-539 CNS; 31.8 µM in the experiment with NCI-H460 lung; 63.4 µM in the experiment on NCI-H522 lung.

As to `C[C@]12CCC3[C@@H](CC[C@@H]4c5nonc5CC[C@]34C)C1CC[C@@H]2O` (stereo partly specified), the TGI with LOX IMVI melanoma was 41.1 µM; with CCRF-CEM leukemia it was 54.8 µM; in the experiment on SK-MEL-28 melanoma, 70 µM; with SF-539 CNS, 32.3 µM; with NCI-H460 lung, 71.7 µM; in the experiment on NCI-H522 lung it was 50.9 µM. In addition, the TGI in the experiment on OVCAR-8 ovarian was greater than 100 µM.

Consider `Cc1c(/C=N/N(C)C)oc2c1cc(O)c1ncccc12`, for which the TGI with HCT-116 colon was greater than 100 µM; in the experiment on LOX IMVI melanoma, 45.2 µM; in the experiment on CCRF-CEM leukemia it was 7.26 µM; with SK-MEL-28 melanoma, greater than 100 µM; in the experiment with SR leukemia, 40.4 µM; with NCI-H460 lung it was 41 µM. For the same compound, the TGI with NCI-H522 lung amounted to 8.58 µM; with OVCAR-8 ovarian, 74.2 µM.

Turning to `O=C(CC(Cl)=C(Cl)Cl)c1cccc(Cl)c1Cl`, the GI50 is 78.3 µM in the experiment on PC-3 prostate; 42.6 µM with HCT-116 colon; 38.1 µM in the experiment on LOX IMVI melanoma; 46.6 µM in the experiment with CCRF-CEM leukemia; greater than 100 µM in the experiment on SK-MEL-28 melanoma; 84.1 µM with SF-539 CNS. Also, the GI50 in the experiment with NCI-H460 lung was greater than 100 µM; in the experiment with NCI-H522 lung, 36.9 µM; in the experiment with OVCAR-8 ovarian, greater than 100 µM. Also, the TGI in the experiment on PC-3 prostate, in the experiment with HCT-116 colon, in the experiment with LOX IMVI melanoma, with CCRF-CEM leukemia, with SK-MEL-28 melanoma and with SF-539 CNS was greater than 100 µM throughout. Also, the TGI in the experiment on NCI-H460 lung, with NCI-H522 lung and with OVCAR-8 ovarian was greater than 100 µM in each case.

As to `CC(=O)NC(CC(C)C)C(=O)NC(Cc1ccccc1)C(=S)N1CCCC1` (stereo unspecified), the TGI in the experiment on LOX IMVI melanoma, with CCRF-CEM leukemia, in the experiment with SK-MEL-28 melanoma, in the experiment with NCI-H460 lung, in the experiment on NCI-H522 lung and in the experiment with OVCAR-8 ovarian was greater than 100 µM in each case.

Regarding `CC(=O)OC1COC(n2c(=S)n(-c3ccccc3)c(=O)c3ccccc32)C(OC(C)=O)C1OC(C)=O` (stereo unspecified), the TGI in the experiment with HCT-116 colon, in the experiment on LOX IMVI melanoma, in the experiment with CCRF-CEM leukemia, in the experiment with SK-MEL-28 melanoma, in the experiment on SF-539 CNS and in the experiment with NCI-H460 lung was greater than 100 µM in each case. In addition, the TGI with NCI-H522 lung and with OVCAR-8 ovarian was greater than 100 µM each time.

`COc1cc2c3c(n(C)c(=O)c2cc1OC)-c1ccc(C#N)cc1C3=O`: the GI50 in the experiment on PC-3 prostate, with HCT-116 colon, with LOX IMVI melanoma, in the experiment on CCRF-CEM leukemia, in the experiment on SK-MEL-28 melanoma and in the experiment with SF-539 CNS was greater than 100 µM throughout. Also, the GI50 in the experiment with NCI-H460 lung was greater than 100 µM; in the experiment with NCI-H522 lung, 52 µM; in the experiment with OVCAR-8 ovarian, greater than 100 µM. The TGI in the experiment on PC-3 prostate, in the experiment on HCT-116 colon, in the experiment with LOX IMVI melanoma, in the experiment on CCRF-CEM leukemia, with SK-MEL-28 melanoma and in the experiment on SF-539 CNS was greater than 100 µM throughout. The TGI in the experiment with NCI-H460 lung, in the experiment with NCI-H522 lung and in the experiment with OVCAR-8 ovarian was greater than 100 µM in each case.

Regarding `Cc1ccc(S(=O)(=O)N/N=C(/c2nc3ccc([N+](=O)[O-])cc3[nH]c2=O)C(O)c2ccc(C(O)/C(=N\NS(=O)(=O)c3ccc(C)cc3)c3nc4ccc([N+](=O)[O-])cc4[nH]c3=O)cc2)cc1` (stereo unspecified), the TGI in the experiment on HCT-116 colon, in the experiment on LOX IMVI melanoma, with CCRF-CEM leukemia, with SK-MEL-28 melanoma, in the experiment with SF-539 CNS and in the experiment on NCI-H460 lung was greater than 100 µM throughout. Further, the TGI in the experiment on NCI-H522 lung was 55.7 µM; with OVCAR-8 ovarian, greater than 100 µM.

Regarding `CC(C)(C)C(C#N)(C#N)c1ccc(C(C#N)(C#N)C(C)(C)C)nn1`, the TGI with LOX IMVI melanoma, in the experiment on CCRF-CEM leukemia, in the experiment with SK-MEL-28 melanoma, with SF-539 CNS, in the experiment with NCI-H460 lung and in the experiment with NCI-H522 lung was greater than 100 µM in each case. Further, the TGI with OVCAR-8 ovarian was greater than 100 µM.

`CC1(C)C(=O)C(C)(C)C1=S`: the TGI with HCT-116 colon, in the experiment with LOX IMVI melanoma, in the experiment with CCRF-CEM leukemia, with SK-MEL-28 melanoma, with SR leukemia and in the experiment on NCI-H460 lung was greater than 100 µM in each case. In addition, the TGI in the experiment on NCI-H522 lung and in the experiment on OVCAR-8 ovarian was greater than 100 µM throughout.

On to `N#C/C(=C/NC(=S)c1ccncc1)C(N)=O`, for which the TGI in the experiment with HCT-116 colon, with LOX IMVI melanoma, in the experiment with SK-MEL-28 melanoma, with SF-539 CNS, with NCI-H460 lung and in the experiment on OVCAR-8 ovarian was greater than 100 µM in each case.

As for `O=P(O)(O)C1(P(=O)(O)O)CC1`, the TGI in the experiment with HCT-116 colon, in the experiment on LOX IMVI melanoma, in the experiment with CCRF-CEM leukemia, in the experiment with SK-MEL-28 melanoma, in the experiment with SF-539 CNS and in the experiment with NCI-H460 lung was greater than 100 µM in each case. Further, the TGI in the experiment with NCI-H522 lung and in the experiment with OVCAR-8 ovarian was greater than 100 µM in each case.

Values taken from PubChem BioAssay (NCI).
